Data published in patent publication US10780071B2, “Compositions, methods and/or devices for prevention and/or treatment of dry eye disorders” (Brien Holden Vision Institute Limited, priority 2012, dated 2020).
Like-named read-outs stand apart in the source and are kept apart here.

How the values were obtained:
lipase [1] = assay: Lipase activity in bacterial culture supernatants (QuantiChrom Lipase Assay Kit); format: cell-based; settings: TSB, 37° C., 24 h
Method: (§1) The bacterial strains S. aureus 020 & 134, and S. epidermidis 024 & 025 were grown at 37° C. in TSB treated with 0, 6.25 or 12.5 μg/ml of glycerol monolaurate or lauric acid as well as in TSB extraction of glycerol monolaurate ointment prior to assay of bacterial growth and lipase activity. After incubation for 24 h, bacterial growth was determined by measuring the optical density of cultures using a spectrophotometer at a wavelength of 660 nm. Lipase activity by test bacterial strains under various treatments were assessed by examining the lipase activity in bacterial culture supernatants with a QuantiChrom™ Lipase Assay Kit.

lipase [2] = assay: Lipase activity in culture supernatants, summary over the test strains; format: cell-based, S. aureus 020 & 134, and S. epidermidis 024 & 025
Method: The bacterial strains S. aureus 020 & 134, […] of glycerol monolaurate ointment prior to assay of bacterial growth and lipase activity. After incubation for 24 h, bacterial growth was determined by measuring the optical density of cultures using a spectrophotometer at a wavelength of 660 nm. Lipase activity by test bacterial strains under various treatments were assessed by examining the lipase activity in bacterial culture supernatants with a QuantiChrom™ Lipase Assay Kit.

lipase [3] = assay: Lipase activity in bacterial culture supernatants (QuantiChrom Lipase Assay Kit); format: cell-based; settings: S. aureus 134, TSB, 37° C., 24 h
Method: The bacterial strains S. aureus 020 & 134, and S. […] in TSB extraction of glycerol monolaurate ointment prior to assay of bacterial growth and lipase activity. After incubation for 24 h, bacterial growth was determined by measuring the optical density of cultures using a spectrophotometer at a wavelength of 660 nm. Lipase activity by test bacterial strains under various treatments were assessed by examining the lipase activity in bacterial culture supernatants with a QuantiChrom™ Lipase Assay Kit.

lipase [4] = assay: as above; format: cell-based; settings: S. aureus 020, TSB, 37° C., 24 h
Method: The bacterial strains S. aureus 020 & 134, […] in TSB extraction of glycerol monolaurate ointment prior to assay of bacterial growth and lipase activity. After incubation for 24 h, bacterial growth was determined by measuring the optical density of cultures using a spectrophotometer at a wavelength of 660 nm. Lipase activity by test bacterial strains under various treatments were assessed by examining the lipase activity in bacterial culture supernatants with a QuantiChrom™ Lipase Assay Kit.

S. aureus 020 = assay: Bacterial growth, optical density of cultures at 660 nm; format: cell-based; settings: Staphylococcus aureus, 020, 24 h, read-out: Inhibition of Growth
Method: as §1

S. aureus 134 = assay: as above; format: cell-based; settings: Staphylococcus aureus, TSB, 37° C., 24 h
Method: as §1

S. epidermidis 024 = assay: as above; format: cell-based; settings: read-out: Inhibition of Growth
Method: as §1

S. epidermidis 025 = assay: as above; format: cell-based; settings: read-out: Inhibition of Growth
Method: as §1

[5] = tested on: S. aureus 020 & 134, and S. epidermidis 024 & 025; assay: Bacterial growth, summary over the test strains; format: cell-based; settings: concentrations of Tables 1-4; 24 h
Method: as §1

[6] = glycerol monolaurate 12.5 μg/ml
[7] = glycerol monolaurate 17.5 μg/ml
[8] = Staphylococcus epidermidis, 024, 24 h
[9] = Staphylococcus epidermidis, 025, 24 h

CCCCCCCCCCCC(=O)OCC(O)CO (stereo not shown) [Glycerol monolaurate]
Inhibition of Lipase activity (lipase [1]; S. epidermidis 024, glycerol monolaurate 6.25 μg/ml): 46% | Inhibition of Lipase activity (lipase [1]; S. epidermidis 024, glycerol monolaurate 12.5 μg/ml): 70% | Inhibition of Lipase activity (lipase [1]; S. epidermidis 025, glycerol monolaurate 6.25 μg/ml): 48% | Inhibition of Lipase activity (lipase [1]; S. epidermidis 025, glycerol monolaurate 12.5 μg/ml): 72% | inhibits lipase activity by approximately (range over Table 1) (lipase [2]; all strains and concentrations of Table 1 (5-17.5 μg/ml)): 16-88% | Inhibition of Lipase activity (lipase [3]; glycerol monolaurate 10 μg/ml): 25% | Inhibition of Lipase activity (lipase [3]; [6]): 38% | Inhibition of Lipase activity (lipase [3]; glycerol monolaurate 15 μg/ml): 49% | Inhibition of Lipase activity (lipase [3]; [7]): 63% | Inhibition of Lipase activity (lipase [4]; glycerol monolaurate 5 μg/ml): 16% | Inhibition of Lipase activity (lipase [4]; glycerol monolaurate 7.5 μg/ml): 29% | Inhibition of Lipase activity (lipase [4]; glycerol monolaurate 10 μg/ml): 50% | Inhibition of Lipase activity (lipase [4]; [6]): 63% | Inhibition of Lipase activity (lipase [4]; glycerol monolaurate 15 μg/ml): 73% | Inhibition of Lipase activity (lipase [4]; [7]): 88% | inhibition at 5 µg/mL (S. aureus 020): 1% | inhibition at 7.5 µg/mL (S. aureus 020): 0% | inhibition at 10 µg/mL (S. aureus 020): 4% | inhibition at 12.5 µg/mL (S. aureus 020): 4% | inhibition at 15 µg/mL (S. aureus 020): 2% | inhibition at 17.5 µg/mL (S. aureus 020): 0% | inhibition at 10 µg/mL (S. aureus 134; glycerol monolaurate 10 μg/ml): 0% | inhibition at 12.5 µg/mL (S. aureus 134; [6]): 0% | inhibition at 15 µg/mL (S. aureus 134; glycerol monolaurate 15 μg/ml): 1% | inhibition at 17.5 µg/mL (S. aureus 134; [7]): 0% | inhibition at 6.25 µg/mL (S. epidermidis 024; [8]): 0% | inhibition at 12.5 µg/mL (S. epidermidis 024; [8]): 0% | inhibition at 6.25 µg/mL (S. epidermidis 025; [9]): 0% | inhibition at 12.5 µg/mL (S. epidermidis 025; [9]): 0% | effect on growth of the bacterial strains at the concentrations used [5]: do not substantially inhibit growth

CCCCCCCCCCCC(=O)O [Lauric acid]
Inhibition of Lipase activity (lipase [1]; S. epidermidis 024, lauric acid 6.25 μg/ml): 46% | Inhibition of Lipase activity (lipase [1]; S. epidermidis 024, lauric acid 12.5 μg/ml): 70% | Inhibition of Lipase activity (lipase [1]; S. epidermidis 025, lauric acid 6.25 μg/ml): 48% | Inhibition of Lipase activity (lipase [1]; S. epidermidis 025, lauric acid 12.5 μg/ml): 72% | inhibits lipase activity by approximately (range over Table 2) (lipase [2]; S. epidermidis 024 and 025, 6.25 and 12.5 μg/ml (Table 2)): 46-72% | inhibition at 6.25 µg/mL (S. epidermidis 024; Staphylococcus epidermidis, S. epidermidis 024, lauric acid 6.25 μg/ml, TSB, 37° C., 24 h): 0% | inhibition at 12.5 µg/mL (S. epidermidis 024; Staphylococcus epidermidis, S. epidermidis 024, lauric acid 12.5 μg/ml, TSB, 37° C., 24 h): 0% | inhibition at 6.25 µg/mL (S. epidermidis 025; Staphylococcus epidermidis, S. epidermidis 025, lauric acid 6.25 μg/ml, TSB, 37° C., 24 h): 0% | inhibition at 12.5 µg/mL (S. epidermidis 025; Staphylococcus epidermidis, S. epidermidis 025, lauric acid 12.5 μg/ml, TSB, 37° C., 24 h): 0% | effect on growth of the bacterial strains at the concentrations used [5]: do not substantially inhibit growth
